Earlier results on 2 molecules are cited in patent publication US20080095838A1, “Solid pharmaceutical composition containing a lipophilic active principle and preparation method thereof” (CLL Pharma, priority 2002, published 2008).

For orientation: solubility means the dissolved amount per volume that the medium holds.

Structures can show the parent of a compound that is named as a salt.

For data set [1] the following is noted: in vivo.
For data set [2] the following is noted: in water.

For the molecule `CC(C)OC(=O)C(C)(C)Oc1ccc(C(=O)c2ccc(Cl)cc2)cc1` [fenofibrate, 2-(4-(4-chlorobenzoyl)phenoxy)-2-methylpropanoic acid 1-methylethyl ester], the elimination half-life entry in data set [1] is listed as “approximately 20 hours”. Consider `CC(C)(C)NC(=O)[C@@H]1C[C@@H]2CCCC[C@@H]2CN1C[C@@H](O)[C@H](Cc1ccccc1)NC(=O)[C@H](CC(N)=O)NC(=O)c1ccc2ccccc2n1` [saquinavir mesylate], for which the solubility in data set [2] is 2220 µg/mL.
